Experiments:
[1] = target: Matrix metalloproteinase-9 (Homo sapiens, UniProt P14780); test: (§1) Activity Assay: Stock solution of substrate (Mca-Lys-Pro-Leu-Gly-Leu-Dpa-Ala-Arg-NH2) was prepared in DMSO at a concentration of 6 mM. Assays were performed in an assay buffer (50 mM Tris pH 7.5, 300 mM NaCl, 10 uM ZnSO4, 5 mM CaCl2, 0.005% Brij-35). The final DMSO concentration in all assays was 1.0%. […] The assays were carried out at 37° C. The fluorescence changes, resulting from the substrate cleavage, were detected using excitation at 340 nm and emission wavelength of 405 nm using a Wallac 1420 Microplate Reader. The reaction mixtures were preincubated with the inhibitors for 30 minutes. The reactions were started by the addition of MMP substrate, and the fluorescence intensity changes were measured after 60 minutes. The obtained fluorescence values were normalized and % inhibition values calculated. Dose response curves were determined from 6 concentration points using three fold dilution steps, each concentration point was determined in dupllicate. IC50 values were calculated from the dose response curves.
[2] = target: 72 kDa type IV collagenase (Homo sapiens, UniProt P08253); test: as §1
[3] = target: T1, Interstitial collagenase (Homo sapiens, UniProt P03956); test: as §1
T1 sequence (P03956 whole entry): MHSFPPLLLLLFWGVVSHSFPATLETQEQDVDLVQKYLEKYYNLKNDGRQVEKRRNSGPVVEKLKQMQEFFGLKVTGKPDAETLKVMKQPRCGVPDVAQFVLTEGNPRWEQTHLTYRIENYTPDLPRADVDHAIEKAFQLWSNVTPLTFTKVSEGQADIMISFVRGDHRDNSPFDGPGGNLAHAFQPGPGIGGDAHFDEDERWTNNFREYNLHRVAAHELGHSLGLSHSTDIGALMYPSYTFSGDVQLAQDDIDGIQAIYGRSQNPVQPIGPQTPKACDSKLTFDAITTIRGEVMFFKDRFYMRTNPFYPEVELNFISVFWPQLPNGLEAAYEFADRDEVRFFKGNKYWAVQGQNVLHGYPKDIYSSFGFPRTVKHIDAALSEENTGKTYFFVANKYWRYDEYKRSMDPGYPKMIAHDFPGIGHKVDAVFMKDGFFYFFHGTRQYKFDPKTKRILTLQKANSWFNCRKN

[4] = target: Collagenase 3 (Homo sapiens, UniProt P45452); test: as §1, with “The fluorescence changes, resulting from the substrate cleavage, were detected using excitation at 340 nm and emission wavelength of 405 nm using a Wallac 1420 Microplate Reader.” left out

72 kDa type IV collagenase, sequence (P08253 whole entry): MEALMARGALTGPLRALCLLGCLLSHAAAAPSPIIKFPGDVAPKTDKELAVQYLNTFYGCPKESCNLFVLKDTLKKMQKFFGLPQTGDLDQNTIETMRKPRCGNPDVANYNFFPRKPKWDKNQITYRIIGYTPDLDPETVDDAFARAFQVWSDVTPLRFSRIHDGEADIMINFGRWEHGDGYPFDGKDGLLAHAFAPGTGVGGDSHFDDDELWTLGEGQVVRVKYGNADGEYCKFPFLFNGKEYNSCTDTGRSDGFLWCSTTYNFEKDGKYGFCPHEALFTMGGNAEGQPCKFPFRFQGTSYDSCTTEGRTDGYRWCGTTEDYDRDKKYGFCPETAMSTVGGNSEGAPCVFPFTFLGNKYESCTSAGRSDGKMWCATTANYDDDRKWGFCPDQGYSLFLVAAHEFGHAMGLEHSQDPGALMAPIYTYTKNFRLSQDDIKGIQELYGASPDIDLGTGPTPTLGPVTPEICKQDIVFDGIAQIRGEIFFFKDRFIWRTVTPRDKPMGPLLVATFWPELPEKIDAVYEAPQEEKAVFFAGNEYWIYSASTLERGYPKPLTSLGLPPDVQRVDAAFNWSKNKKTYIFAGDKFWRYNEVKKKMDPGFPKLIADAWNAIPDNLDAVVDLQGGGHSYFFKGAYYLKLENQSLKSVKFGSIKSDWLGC
Matrix metalloproteinase-9, sequence (P14780 whole entry): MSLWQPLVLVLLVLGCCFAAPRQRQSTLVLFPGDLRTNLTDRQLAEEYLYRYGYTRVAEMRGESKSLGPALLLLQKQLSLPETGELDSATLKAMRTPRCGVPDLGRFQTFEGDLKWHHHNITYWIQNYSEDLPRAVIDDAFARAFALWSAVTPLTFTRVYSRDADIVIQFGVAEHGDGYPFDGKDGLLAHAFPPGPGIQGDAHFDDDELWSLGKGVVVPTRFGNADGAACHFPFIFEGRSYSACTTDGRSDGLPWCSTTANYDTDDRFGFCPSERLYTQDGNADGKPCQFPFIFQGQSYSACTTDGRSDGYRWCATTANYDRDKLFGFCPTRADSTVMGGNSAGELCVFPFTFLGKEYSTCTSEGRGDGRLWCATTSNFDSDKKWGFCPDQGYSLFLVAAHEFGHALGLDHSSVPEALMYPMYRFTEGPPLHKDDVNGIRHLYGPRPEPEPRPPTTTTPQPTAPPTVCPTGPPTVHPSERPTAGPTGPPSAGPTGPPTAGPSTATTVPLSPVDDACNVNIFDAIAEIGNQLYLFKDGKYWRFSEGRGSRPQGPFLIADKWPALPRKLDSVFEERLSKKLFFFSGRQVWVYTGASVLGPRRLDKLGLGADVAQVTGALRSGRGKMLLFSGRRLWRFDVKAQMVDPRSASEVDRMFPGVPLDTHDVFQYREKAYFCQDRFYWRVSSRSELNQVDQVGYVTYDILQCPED

Row | IC50 [1] [µM] | IC50 [2] [µM] | IC50 [3] [µM] | IC50 [4] [µM] | Compound
1 | 140 | > 500 | 280 | 27 | CCOC(=O)c1csc(CN(Cc2ccc(F)cc2)Cc2ccc(OCc3ccccc3)cc2)n1
2 | 10 | 26 |  | 1.76 | O=C(O)c1csc(CN(Cc2ccc(OCc3ccccc3)cc2)CC(c2ccccc2)c2ccccc2)n1
